We go through eleven compounds from ChEMBL document CHEMBL1151842, “Bioactive metabolites from the endophytic fungus Stemphylium globuliferum isolated from Mentha pulegium” (J Nat Prod, 2009).

The IC50 is the concentration at which inhibition is half-maximal. The term EC50 denotes the midpoint of the concentration-response curve. Lower therefore signals higher potency in that assay.

Values after ≈ are worked out from the molar mass of the structure shown.

Experiment [1] deals with T1, Aurora kinase A (Homo sapiens, UniProt O14965).
T1 sequence (O14965 whole entry): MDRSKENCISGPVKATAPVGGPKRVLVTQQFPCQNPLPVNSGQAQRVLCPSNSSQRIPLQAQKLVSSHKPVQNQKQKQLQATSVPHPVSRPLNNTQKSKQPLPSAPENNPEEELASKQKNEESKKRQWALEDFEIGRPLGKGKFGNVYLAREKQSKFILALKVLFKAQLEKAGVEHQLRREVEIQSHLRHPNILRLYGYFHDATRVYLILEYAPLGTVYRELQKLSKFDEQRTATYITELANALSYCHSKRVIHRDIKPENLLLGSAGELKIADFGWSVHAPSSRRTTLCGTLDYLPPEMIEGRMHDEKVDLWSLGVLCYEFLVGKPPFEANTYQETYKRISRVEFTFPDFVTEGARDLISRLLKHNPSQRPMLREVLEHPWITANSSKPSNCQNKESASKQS
As to the kind of experiment: Inhibition of recombinant Aurora A.

The target in experiment [2] is Aurora kinase B (Homo sapiens, UniProt Q96GD4). As to the kind of experiment: Inhibition of recombinant Aurora B.
Experiment [3] addresses Cyclin-dependent kinase 4/cyclin D1 (Homo sapiens, UniProt P11802). As to the kind of experiment: Inhibition of recombinant CDK4/CycD1. The class given is protein-complex assay.
Experiment [4] addresses Mitogen-activated protein kinase kinase kinase 8 (Homo sapiens, UniProt P41279). As to the kind of experiment: Inhibition of recombinant COT.
Experiment [5] has as its target Insulin-like growth factor 1 receptor (Homo sapiens, UniProt P08069). As to the kind of experiment: Inhibition of recombinant IGF1R.
Experiment [6] concerns the target Proto-oncogene tyrosine-protein kinase Src (Homo sapiens, UniProt P12931). As to the kind of experiment: Inhibition of recombinant SRC.
Experiment [7] has as its target Vascular endothelial growth factor receptor 2 (Homo sapiens, UniProt P35968). As to the kind of experiment: Inhibition of recombinant VEGFR2.
Experiment [8] has as its target Vascular endothelial growth factor receptor 3 (Homo sapiens, UniProt P35916). As to the kind of experiment: Inhibition of recombinant VEGFR3.
For experiment [9], the target named is T2, Receptor-type tyrosine-protein kinase FLT3 (Homo sapiens, UniProt P36888).
T2 sequence (P36888 whole entry): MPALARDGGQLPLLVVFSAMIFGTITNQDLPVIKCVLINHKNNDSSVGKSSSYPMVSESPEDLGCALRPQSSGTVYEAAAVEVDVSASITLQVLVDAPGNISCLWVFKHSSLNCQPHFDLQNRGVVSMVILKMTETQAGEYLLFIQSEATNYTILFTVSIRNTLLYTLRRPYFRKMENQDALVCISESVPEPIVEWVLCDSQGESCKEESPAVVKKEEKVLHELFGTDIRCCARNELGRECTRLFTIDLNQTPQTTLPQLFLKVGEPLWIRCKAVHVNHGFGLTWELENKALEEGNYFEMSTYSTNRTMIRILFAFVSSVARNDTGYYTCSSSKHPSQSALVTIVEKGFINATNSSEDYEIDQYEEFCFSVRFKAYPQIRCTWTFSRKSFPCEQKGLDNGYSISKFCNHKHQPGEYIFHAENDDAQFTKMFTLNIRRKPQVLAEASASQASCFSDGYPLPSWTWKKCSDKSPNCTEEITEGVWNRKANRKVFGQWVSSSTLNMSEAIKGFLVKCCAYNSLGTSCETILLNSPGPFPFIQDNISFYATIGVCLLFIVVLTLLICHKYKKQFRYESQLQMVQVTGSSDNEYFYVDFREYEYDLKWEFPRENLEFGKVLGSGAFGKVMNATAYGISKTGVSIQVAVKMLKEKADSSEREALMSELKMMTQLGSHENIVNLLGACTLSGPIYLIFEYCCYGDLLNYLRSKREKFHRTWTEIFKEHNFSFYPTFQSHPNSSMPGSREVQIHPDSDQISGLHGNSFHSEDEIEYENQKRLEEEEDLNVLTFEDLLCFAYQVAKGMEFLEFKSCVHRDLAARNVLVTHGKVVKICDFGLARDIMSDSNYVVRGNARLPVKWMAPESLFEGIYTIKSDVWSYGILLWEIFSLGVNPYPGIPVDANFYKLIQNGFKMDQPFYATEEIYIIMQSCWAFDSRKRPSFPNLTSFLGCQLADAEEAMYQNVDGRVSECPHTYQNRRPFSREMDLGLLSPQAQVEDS
As to the kind of experiment: Inhibition of recombinant FLT3.

The target of experiment [10] is Insulin receptor (Homo sapiens, UniProt P06213). As to the kind of experiment: Inhibition of recombinant INSR.
Experiment [11] addresses Hepatocyte growth factor receptor (Homo sapiens, UniProt P08581). As to the kind of experiment: Inhibition of recombinant MET.
In experiment [12] the target is T3, Serine/threonine-protein kinase PLK4 (Homo sapiens, UniProt O00444).
T3 sequence (O00444 whole entry): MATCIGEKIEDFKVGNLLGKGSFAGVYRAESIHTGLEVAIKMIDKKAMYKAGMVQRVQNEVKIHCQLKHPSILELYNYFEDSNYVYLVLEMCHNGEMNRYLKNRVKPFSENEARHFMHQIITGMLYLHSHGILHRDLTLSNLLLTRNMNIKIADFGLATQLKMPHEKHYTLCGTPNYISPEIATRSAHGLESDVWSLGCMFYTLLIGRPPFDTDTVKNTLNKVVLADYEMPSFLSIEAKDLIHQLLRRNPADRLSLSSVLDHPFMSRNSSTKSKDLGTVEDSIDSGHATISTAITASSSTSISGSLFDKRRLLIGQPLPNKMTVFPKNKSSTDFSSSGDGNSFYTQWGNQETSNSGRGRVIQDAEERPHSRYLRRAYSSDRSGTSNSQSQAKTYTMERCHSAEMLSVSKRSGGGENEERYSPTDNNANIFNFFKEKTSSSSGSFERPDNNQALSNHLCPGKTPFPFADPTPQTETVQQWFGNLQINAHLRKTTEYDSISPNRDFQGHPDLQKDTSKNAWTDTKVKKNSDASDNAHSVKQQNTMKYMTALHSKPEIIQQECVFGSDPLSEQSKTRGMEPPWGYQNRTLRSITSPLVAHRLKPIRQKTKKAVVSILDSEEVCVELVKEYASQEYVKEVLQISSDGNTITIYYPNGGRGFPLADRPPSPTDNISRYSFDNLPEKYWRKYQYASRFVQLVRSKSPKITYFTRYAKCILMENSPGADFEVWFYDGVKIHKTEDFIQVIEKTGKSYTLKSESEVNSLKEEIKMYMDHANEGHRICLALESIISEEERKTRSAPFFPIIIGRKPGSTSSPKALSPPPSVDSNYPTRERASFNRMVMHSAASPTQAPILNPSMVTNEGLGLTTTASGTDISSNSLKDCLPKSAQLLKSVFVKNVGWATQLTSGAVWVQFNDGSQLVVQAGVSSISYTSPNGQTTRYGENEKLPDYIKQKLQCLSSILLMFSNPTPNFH
As to the kind of experiment: Inhibition of recombinant SAK.

In experiment [13] the test system is L5178Y. As to the kind of experiment: Cytotoxicity against mouse L5178Y cells at 10 ug/mL by MTT assay. The class given is functional. A general note: Tetrazolium assays rely on reduction of a dye to a coloured formazan, in cell work by metabolically active cells.
The target in experiment [14] is Angiopoietin-1 receptor (Homo sapiens, UniProt Q02763). As to the kind of experiment: Inhibition of recombinant TIE2.
For experiment [15], the system named is L5178Y. As to the kind of experiment: cells. Particulars: Mus musculus.
Description: Cytotoxicity against mouse L5178Y cells by MTT assay
Experiment [16] has as its target RAC-alpha serine/threonine-protein kinase (Homo sapiens, UniProt P31749). As to the kind of experiment: Inhibition of recombinant AKT1.
Experiment [17] has as its target NUAK family SNF1-like kinase 1 (Homo sapiens, UniProt O60285). As to the kind of experiment: Inhibition of recombinant ARK5.
Experiment [18] has as its target Serine/threonine-protein kinase B-raf (Homo sapiens, UniProt P15056, V600E). As to the kind of experiment: Inhibition of recombinant B-RAF-V600E mutant.
Experiment [19] addresses Cyclin-dependent kinase 2 (Homo sapiens, UniProt P24941). As to the kind of experiment: Inhibition of recombinant CDK2/CycA.
The target in experiment [20] is Ephrin type-B receptor 4 (Homo sapiens, UniProt P54760). As to the kind of experiment: Inhibition of recombinant EPHB4.
The target of experiment [21] is Receptor tyrosine-protein kinase erbB-2 (Homo sapiens, UniProt P04626). As to the kind of experiment: Inhibition of recombinant ERBB2.
The target of experiment [22] is Focal adhesion kinase 1 (Homo sapiens, UniProt Q05397). As to the kind of experiment: Inhibition of recombinant FAK.
Experiment [23] has as its target Serine/threonine-protein kinase PLK1 (Homo sapiens, UniProt P53350). As to the kind of experiment: Inhibition of recombinant PLK1.
The target in experiment [24] is Casein kinase II subunit alpha (Homo sapiens, UniProt P68400). As to the kind of experiment: Inhibition of recombinant CK2alpha1.
Chain of Casein kinase II subunit alpha (P68400 whole entry): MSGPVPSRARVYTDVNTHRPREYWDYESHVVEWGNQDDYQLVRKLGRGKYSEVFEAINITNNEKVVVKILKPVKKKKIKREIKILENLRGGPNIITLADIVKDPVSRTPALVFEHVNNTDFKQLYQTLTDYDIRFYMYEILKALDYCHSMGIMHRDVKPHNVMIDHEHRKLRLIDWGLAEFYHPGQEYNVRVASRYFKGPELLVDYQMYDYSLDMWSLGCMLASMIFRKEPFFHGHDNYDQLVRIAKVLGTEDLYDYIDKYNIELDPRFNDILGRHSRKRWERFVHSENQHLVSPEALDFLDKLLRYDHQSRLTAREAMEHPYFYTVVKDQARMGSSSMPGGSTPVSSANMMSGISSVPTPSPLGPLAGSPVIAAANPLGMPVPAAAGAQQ

Chain of Mitogen-activated protein kinase kinase kinase 8 (P41279 whole entry): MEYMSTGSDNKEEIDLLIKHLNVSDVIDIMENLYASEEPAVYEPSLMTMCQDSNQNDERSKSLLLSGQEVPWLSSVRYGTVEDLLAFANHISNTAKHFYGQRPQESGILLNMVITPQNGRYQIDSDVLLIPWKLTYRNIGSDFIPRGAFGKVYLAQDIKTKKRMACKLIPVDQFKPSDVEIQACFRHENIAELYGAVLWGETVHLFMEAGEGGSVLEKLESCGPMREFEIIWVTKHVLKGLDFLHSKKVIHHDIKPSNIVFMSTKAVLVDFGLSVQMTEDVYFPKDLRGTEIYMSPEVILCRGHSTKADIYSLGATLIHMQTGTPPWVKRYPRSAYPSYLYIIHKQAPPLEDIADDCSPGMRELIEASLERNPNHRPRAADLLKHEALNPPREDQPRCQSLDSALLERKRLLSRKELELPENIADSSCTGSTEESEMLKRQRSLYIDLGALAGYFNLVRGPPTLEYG
Chain of Hepatocyte growth factor receptor (P08581 whole entry): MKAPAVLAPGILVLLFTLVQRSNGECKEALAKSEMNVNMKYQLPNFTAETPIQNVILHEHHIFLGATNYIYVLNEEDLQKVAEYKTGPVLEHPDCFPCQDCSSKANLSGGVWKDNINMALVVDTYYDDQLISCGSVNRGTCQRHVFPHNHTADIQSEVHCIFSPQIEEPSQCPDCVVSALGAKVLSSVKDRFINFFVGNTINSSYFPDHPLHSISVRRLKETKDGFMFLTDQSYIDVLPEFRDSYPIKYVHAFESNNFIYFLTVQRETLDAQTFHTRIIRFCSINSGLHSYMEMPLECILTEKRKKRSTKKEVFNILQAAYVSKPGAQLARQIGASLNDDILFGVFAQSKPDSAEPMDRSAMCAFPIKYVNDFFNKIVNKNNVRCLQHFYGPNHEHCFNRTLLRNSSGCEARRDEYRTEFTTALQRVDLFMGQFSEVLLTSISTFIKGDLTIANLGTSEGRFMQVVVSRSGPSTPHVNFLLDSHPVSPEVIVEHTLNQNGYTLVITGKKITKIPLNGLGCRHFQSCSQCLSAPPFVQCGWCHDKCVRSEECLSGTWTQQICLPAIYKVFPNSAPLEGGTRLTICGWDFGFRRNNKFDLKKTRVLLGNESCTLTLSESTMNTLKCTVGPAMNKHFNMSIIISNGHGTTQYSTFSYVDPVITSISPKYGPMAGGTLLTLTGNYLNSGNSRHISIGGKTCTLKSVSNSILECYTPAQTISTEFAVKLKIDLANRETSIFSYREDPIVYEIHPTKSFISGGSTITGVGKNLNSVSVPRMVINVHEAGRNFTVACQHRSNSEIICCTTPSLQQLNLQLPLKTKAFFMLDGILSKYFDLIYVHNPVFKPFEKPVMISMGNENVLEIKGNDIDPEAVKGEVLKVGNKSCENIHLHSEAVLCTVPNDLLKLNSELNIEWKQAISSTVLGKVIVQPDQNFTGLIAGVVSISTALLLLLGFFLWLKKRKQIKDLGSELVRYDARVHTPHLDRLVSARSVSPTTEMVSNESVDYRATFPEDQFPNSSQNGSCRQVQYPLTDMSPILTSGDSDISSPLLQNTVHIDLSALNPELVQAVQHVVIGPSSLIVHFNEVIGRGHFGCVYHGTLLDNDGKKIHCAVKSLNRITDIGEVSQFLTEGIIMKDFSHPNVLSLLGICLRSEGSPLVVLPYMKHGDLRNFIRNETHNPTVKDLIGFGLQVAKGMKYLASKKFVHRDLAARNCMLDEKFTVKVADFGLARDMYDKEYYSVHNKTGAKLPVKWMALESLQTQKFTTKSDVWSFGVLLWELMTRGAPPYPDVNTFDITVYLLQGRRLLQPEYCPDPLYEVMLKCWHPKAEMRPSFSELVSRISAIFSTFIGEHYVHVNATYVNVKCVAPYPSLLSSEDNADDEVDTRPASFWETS
Chain of Vascular endothelial growth factor receptor 2 (P35968 whole entry): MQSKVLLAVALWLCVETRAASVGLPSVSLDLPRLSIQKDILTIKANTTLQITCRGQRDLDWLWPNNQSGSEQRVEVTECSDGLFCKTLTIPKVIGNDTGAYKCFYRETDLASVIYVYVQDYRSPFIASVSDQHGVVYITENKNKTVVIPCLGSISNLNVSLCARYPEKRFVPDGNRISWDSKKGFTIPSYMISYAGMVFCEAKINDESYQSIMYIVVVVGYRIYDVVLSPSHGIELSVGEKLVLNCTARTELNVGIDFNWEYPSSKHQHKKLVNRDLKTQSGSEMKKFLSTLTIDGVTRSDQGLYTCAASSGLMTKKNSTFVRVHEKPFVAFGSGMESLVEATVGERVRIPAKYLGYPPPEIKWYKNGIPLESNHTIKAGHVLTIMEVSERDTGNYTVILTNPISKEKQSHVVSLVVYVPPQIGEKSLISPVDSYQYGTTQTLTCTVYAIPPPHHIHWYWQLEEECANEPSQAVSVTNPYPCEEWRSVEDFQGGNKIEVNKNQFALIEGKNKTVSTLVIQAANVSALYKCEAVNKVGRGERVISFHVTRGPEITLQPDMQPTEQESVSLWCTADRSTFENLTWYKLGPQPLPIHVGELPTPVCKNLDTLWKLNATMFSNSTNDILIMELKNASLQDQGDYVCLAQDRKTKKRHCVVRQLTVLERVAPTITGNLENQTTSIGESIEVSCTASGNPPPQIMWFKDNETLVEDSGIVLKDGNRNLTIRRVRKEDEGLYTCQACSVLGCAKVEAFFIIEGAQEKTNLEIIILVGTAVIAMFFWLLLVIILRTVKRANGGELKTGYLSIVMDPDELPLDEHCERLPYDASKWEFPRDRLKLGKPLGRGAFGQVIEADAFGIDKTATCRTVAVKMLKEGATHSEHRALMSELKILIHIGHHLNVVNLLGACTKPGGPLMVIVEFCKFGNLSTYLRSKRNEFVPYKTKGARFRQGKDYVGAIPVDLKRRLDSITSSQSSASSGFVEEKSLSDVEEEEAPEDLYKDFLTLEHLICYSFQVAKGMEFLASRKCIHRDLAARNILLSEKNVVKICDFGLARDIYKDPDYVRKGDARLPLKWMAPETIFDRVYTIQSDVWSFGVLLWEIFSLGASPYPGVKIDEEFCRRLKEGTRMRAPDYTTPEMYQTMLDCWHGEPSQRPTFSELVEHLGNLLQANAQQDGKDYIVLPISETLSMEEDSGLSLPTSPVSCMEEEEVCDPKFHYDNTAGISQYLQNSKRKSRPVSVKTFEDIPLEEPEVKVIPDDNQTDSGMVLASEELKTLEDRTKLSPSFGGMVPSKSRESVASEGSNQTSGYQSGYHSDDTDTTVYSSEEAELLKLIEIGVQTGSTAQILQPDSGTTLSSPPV
Chain of Aurora kinase B (Q96GD4 whole entry): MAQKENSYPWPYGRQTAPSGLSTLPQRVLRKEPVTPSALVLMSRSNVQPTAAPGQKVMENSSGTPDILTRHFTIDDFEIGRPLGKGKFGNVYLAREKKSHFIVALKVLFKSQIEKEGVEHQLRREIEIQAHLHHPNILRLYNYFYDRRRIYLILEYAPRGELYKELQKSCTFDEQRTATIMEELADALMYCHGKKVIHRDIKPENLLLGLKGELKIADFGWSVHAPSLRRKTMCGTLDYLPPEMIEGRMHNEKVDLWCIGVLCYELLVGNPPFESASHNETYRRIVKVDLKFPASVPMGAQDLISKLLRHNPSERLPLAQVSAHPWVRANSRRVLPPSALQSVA
Chain of Angiopoietin-1 receptor (Q02763 whole entry): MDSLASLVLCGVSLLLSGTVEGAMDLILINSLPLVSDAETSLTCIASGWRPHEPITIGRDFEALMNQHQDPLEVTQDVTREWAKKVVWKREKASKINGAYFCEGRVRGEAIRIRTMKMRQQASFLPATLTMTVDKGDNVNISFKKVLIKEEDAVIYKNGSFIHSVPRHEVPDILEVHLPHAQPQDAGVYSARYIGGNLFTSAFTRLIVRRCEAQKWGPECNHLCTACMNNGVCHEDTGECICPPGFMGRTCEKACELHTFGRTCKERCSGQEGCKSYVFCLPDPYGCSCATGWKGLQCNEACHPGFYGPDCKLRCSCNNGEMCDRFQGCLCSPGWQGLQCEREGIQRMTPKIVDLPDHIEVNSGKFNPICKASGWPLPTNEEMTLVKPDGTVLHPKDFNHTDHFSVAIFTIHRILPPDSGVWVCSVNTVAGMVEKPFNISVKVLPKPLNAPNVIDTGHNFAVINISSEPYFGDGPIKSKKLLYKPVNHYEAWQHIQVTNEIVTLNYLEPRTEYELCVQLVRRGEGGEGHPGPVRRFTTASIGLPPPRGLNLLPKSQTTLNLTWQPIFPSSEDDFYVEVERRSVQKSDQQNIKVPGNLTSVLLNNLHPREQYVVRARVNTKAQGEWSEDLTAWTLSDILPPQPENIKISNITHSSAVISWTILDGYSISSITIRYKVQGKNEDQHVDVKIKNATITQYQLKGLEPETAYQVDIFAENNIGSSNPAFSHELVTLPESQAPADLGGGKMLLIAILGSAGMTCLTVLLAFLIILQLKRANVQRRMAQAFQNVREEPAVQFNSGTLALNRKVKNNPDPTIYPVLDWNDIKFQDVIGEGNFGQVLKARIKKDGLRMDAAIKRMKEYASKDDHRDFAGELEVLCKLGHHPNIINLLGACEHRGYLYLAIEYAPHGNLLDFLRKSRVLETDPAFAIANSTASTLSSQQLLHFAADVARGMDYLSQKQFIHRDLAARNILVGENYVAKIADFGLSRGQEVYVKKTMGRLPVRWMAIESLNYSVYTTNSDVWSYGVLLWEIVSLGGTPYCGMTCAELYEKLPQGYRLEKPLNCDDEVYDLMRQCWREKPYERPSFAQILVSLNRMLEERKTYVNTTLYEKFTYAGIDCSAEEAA

For `COc1cc(O)c2c(c1)C(=O)c1cc(C)c(O)c(O)c1C2=O`, the IC50 was 9.99 µM in [1]; 5.99 µM in [2]; 12 µM in experiment [3]; 24.3 µM in experiment [4]; 9.33 µM in [5]; 5.99 µM in [6]. The half-maximal inhibitory concentration (IC50) in experiment [7] was 4 µM; in experiment [8] it was 8.99 µM; in experiment [9], 8.33 µM; in [10], 13 µM; in experiment [11], 14.3 µM; in experiment [12], 14.7 µM. In addition, the 50% inhibitory concentration (IC50) in experiment [14] is 15 µM. The same compound gave an Activity in experiment [13] of 4.9%. In experiment [15], this compound registered an EC50 of 4.2 µg/mL (≈ 14 µM).

Turning to `COc1cc(O)c2c(c1-c1c(OC)cc(O)c3c1C(=O)c1cc(C)c(O)cc1C3=O)C(=O)C1=C(C2=O)[C@H](O)[C@@H](O)[C@@](C)(O)[C@@H]1O` (single isomer, unassigned; atropisomer) [ALTERPORRIOL A/B], the Activity in experiment [13] was 31.1%.

Regarding `COc1cc2c(c(O)c1-c1c(OC)cc(O)c3c1C(=O)C1=C(C3=O)[C@H](O)[C@@H](O)[C@@](C)(O)[C@@H]1O)C(=O)c1cc(O)c(C)cc1C2=O` (single isomer, unassigned; atropisomer) [ALTERPORRIOL G/H], the IC50 in experiment [16] is > 16.2 µM; in experiment [17], 6.14 µM; in experiment [1], 4.53 µM; in [2], 3.88 µM; in [18], 10.5 µM; in experiment [19], > 16.2 µM. For the same compound, the IC50 in [3] was 7.6 µM; in experiment [4], 6.79 µM; in [20], 6.79 µM; in experiment [21], 6.79 µM; in experiment [22], 8.89 µM; in experiment [5], 3.07 µM. Besides, the IC50 in experiment [6] was 2.75 µM; in [7], 5.5 µM; in experiment [8] it was 6.47 µM; in [9], 4.53 µM; in [10], 5.98 µM; in [11] it was 10.3 µM. Moreover, the 50% inhibitory concentration (IC50) in [23] was > 16.2 µM; in [24] it was > 16.2 µM; in experiment [12], 2.26 µM; in experiment [14] it was 5.34 µM. In experiment [13], this compound gave an Activity of 0.1%.

On to `COc1cc(O)c2c(c1-c1c(OC)cc(O)c3c1C(=O)C1=C(C3=O)[C@@H](O)[C@H](O)[C@](C)(O)[C@H]1O)C(=O)C1=C(C2=O)[C@H](O)[C@@H](O)[C@@](C)(O)[C@@H]1O` (stereo in doubt; 6), for which the Activity in experiment [13] is listed as 92.1%. Further, in experiment [15], the half-maximal effective concentration (EC50) turned out to be 2.27 µg/mL (≈ 3.39 µM).

In the case of `COc1cc(O)c2c(c1-c1c(OC)cc(O)c3c1C(=O)C1=C(C3=O)[C@@H](O)[C@H](O)[C@](C)(O)[C@H]1O)C(=O)C1=C(C2=O)[C@H](O)[C@@H](O)[C@@](C)(O)[C@@H]1O` (stereo in doubt; 7), the Activity in [13] is listed as 64.8%.

In the case of `COc1cc(O)c2c(c1)C(=O)[C@H]1C[C@](C)(O)[C@H](O)C[C@@H]1[C@H]2O` [ALTERSOLANOL J], the Activity in [13] is on record as 20.1%.

Compound `COc1cc(O)c2c(c1)C(=O)[C@@H]1[C@H](C[C@@H](O)[C@@](C)(O)[C@@H]1O)[C@H]2O` [ALTERSOLANOL K] gave an Activity in experiment [13] of 41.4%.

In the case of `COc1cc(O)c2c(c1)[C@H](O)[C@@H]1[C@H](C[C@@H](O)[C@@](C)(O)[C@@H]1O)C2=O` [ALTERSOLANOL L], the Activity in [13] amounted to 51.4%.

In experiment [13], `Cc1cc(O)c2c(c1)C(=O)c1cc(O)cc(O)c1C2=O` [EMODIN] displayed an Activity of 77%.

Regarding `C/C=C1\NC(=O)[C@H](Cc2ccccc2)NC(=O)[C@@H](C(C)C)NC(=O)[C@@H]([C@H](C)CC)NC(=O)[C@H](NC(=O)[C@H](NC(=O)[C@H](CCCN)NC(=O)[C@H]2CCCN2C(=O)[C@H](NC(=O)[C@@H](NC(=O)[C@@H](NC(=O)[C@H](NC(=O)CCCC(C)C)C(C)C)[C@@H](C)O)C(C)C)C(C)C)[C@H](C)CC)[C@H](C)OC(=O)[C@H](C(C)C)NC1=O` [KAHALALIDE F], it took 6.3 µg/mL (≈ 4.26 µM) to reach a half-maximal effect in experiment [15] (EC50).

In the case of `COc1cc(O)c2c(c1)C(=O)c1cc(C)c(O)cc1C2=O` [MACROSPORIN], the IC50 in experiment [1] was 6.68 µM; in experiment [2], 2.29 µM; in [18], 22.5 µM; in experiment [4], 27.1 µM; in [21], 25.7 µM; in experiment [7] it was 8.44 µM. Also, the concentration for half-maximal inhibition (IC50) in [9] was 2.99 µM; in [11], 15.1 µM; in experiment [12], 15.1 µM; in experiment [14], 6.68 µM. Further, the Activity in experiment [13] was found to be 54.5%.
